Read-outs that look alike come from different tables or passages of the source. A value given as a limit tells only on which side of the number the result lay.

The values below come from patent US7361263B2, “Water treatment apparatus and method” (Sanyo Electric Co., Ltd., priority 2002, dated 2008).

Data set [1] has as its system Escherichia coli (coliform bacillus) NIHJ JC-2. Description: Test of antibacterial activity of amikacin sulfate (MIC, small amount broth dilution). Format: cell-based. The procedure: (§1) In accordance with the MIC measurement by a small amount broth dilution method which is the standard method of the Japanese Society of Chemotherapy, the antibacterial activity of amikacin sulfate was evaluated. As the culture medium for measuring sensitivity, Cation Supplemented Mueller-Hinton Broth: CSMHB (obtained from EIKEN CHEMICAL CO., LTD.) was employed. This CSMHB was dividedly-poured 90 μl each into a U-shaped bottom 96-well microplate. Samples taken 0, 2, 4 and 6 hours from initiation of electrolysis described in the above 1. were prepared. A diluted solution was prepared in accordance with the standard method for each of these samples. […] The bacilli used in the present example are identical to the two types of bacilli used in Example 1, i.e. Staphylococcus aureus (staphylococcus bacteria) FDA […] and Escherichia coli (coliform bacillus) NIHJ JC-2. A solution including bacillus for inoculation similar to that of Example 1 was prepared. The solution including bacillus was inoculated approximately 0.005 ml each into each well of the plate set forth above within 15 minutes from preparation of the solution including bacillus. In this plate, a medium not containing the agent was poured into 1-2 wells as the control of the growth of the bacillus. Cultivation was conducted for 18 to 24 hours at 35° C. The evaluation method is identical to that employed in Example 1.
On the technique in general: In broth dilution the organism is exposed to a series of concentrations in liquid medium.

Data set [2] deals with Staphylococcus aureus (staphylococcus bacteria) FDA 209P. Described as above. It counts as cell-based. The procedure:
as §1

Data set [3] can be described thus: Ion chromatograph and total nitrogen analysis of electrolyzed amikacin sulfate solution. It counts as physicochemical. Conditions: for Nitrogen Concentration Org-N: T-N minus NO3—N, NO2—N, NH4—N.
The nature of data set [4]: High performance liquid chromatograph analysis of electrolyzed amikacin sulfate solution. It counts as physicochemical.
In a further data set the test system is MOLT-4 cell. Description: Cytotoxicity (CC50) test, WST-8. It counts as cell-based, human. An excerpt:
For the measurement of the number of cells, tetrazolium salt WST-8 (Cell Counting Kit-8 available as a kit) was employed as the chromophone. The basic principle of the cytotoxicity (CC50) test is set forth below. WST-8 is reduced by intracellular dehydrogenation enzyme to produce soluble formazan. Since the number of cells and the amount of generated formazan is linearly proportional, the number of cells can be readily measured by directly measuring the absorbancy of formazan at 450 nm. The specific procedure for measurement is set forth below. 180 μl of a culture medium was introduced into each of the wells in the range of rows A-D and columns 3-10 in a 96-well flat microtiter plate for diluting the agent. 240 μl of the sample taken at 0 hours from initiation of electrolysis was added to the well of row A, column 2 in the microtiter plate. 240 μl of the sample taken 2 hours from initiation of electrolysis was added to the well of row B, column 2. 240 μl of the sample taken 4 hours from initiation of electrolysis was added to the well of row C, column 2. 240 μl of the sample taken 6 hours from initiation of electrolysis was added to the well of row D, column 2. To produce respective columns of sample dilutions, samples of 60 μl each was taken from the above-described samples of 240 μl. These samples of 60 μl were sequentially added to the right side well to be sufficiently pipeted. This was conducted up to column 10. Two of U-bottom 96-well microtiter plates for cultivation were prepared, and 200 μl of PBS was applied to all the side-most wells. 100 μl of culture medium was introduced into each of the wells of rows B-G, columns 2-9. 150 μl of culture medium was introduced into the wells of columns 10 and 11. Then, 50 μl of cell suspension solution prepared to 5×10^6 cell/ml was introduced into each of the wells of rows B-G, columns 2-9 and column 11. The wells of column 10 were absent of cells. […] Then, the O.D. was measured at 450 nm and 620 nm using a microplate reader.
(In general: Tetrazolium assays rely on reduction of a dye to a coloured formazan, in cell work by metabolically active cells.)

Where [5] appears, read: 6 hours from initiation of electrolysis.

For `NCC[C@H](O)C(=O)N[C@@H]1C[C@H](N)[C@@H](O[C@H]2O[C@H](CN)[C@@H](O)[C@H](O)[C@H]2O)[C@H](O)[C@H]1O[C@H]1O[C@H](CO)[C@@H](O)[C@H](N)[C@H]1O.O=S(=O)(O)O.O=S(=O)(O)O` [amikacin sulfate, Amikacin sulfate], the “minimum inhibitory concentration (MIC)” value in data set [1] (6 hours from initiation of electrolysis, as tested) is more than 100 µg/mL; in data set [1] (electrolyzing time 0 hours), 3.125 µg/mL; in data set [1] (electrolyzing time 2 hours), 12.5 µg/mL; in data set [1] (electrolyzing time 4 hours) it was 50 µg/mL; in data set [2] (electrolyzing time 0 hours), 0.195 µg/mL; in data set [2] (electrolyzing time 2 hours), 1.56 µg/mL. In addition, the “minimum inhibitory concentration (MIC)” value turned out to be 6.25 µg/mL in data set [2] (electrolyzing time 4 hours) and 100 µg/mL in data set [2] (electrolyzing time 6 hours). Also, the “relative value of the MIC (MIC at 0 hours set as 1)” value in data set [1] (electrolyzing time 0 hours) was 1; in data set [1] (electrolyzing time 2 hours) it was “¼”; in data set [1] (electrolyzing time 4 hours), 1/16; in data set [1] (electrolyzing time 6 hours, from calculated MIC) it was 1/212; in data set [2] (electrolyzing time 0 hours), 1; in data set [2] (electrolyzing time 2 hours) it was “⅛”. Further, the “relative value of the MIC (MIC at 0 hours set as 1)” value in data set [2] (electrolyzing time 4 hours) is 1/32; in data set [2] (electrolyzing time 6 hours), 1/512. Further, the “minimum inhibitory concentration (MIC), calculated based on formula (4)” value in data set [1] (electrolyzing time 6 hours, calculated) is 664 µg/mL. Besides, the “Nitrate nitrogen (NO3—N) share of the total nitrogen (T-N)” value in data set [3] (setting [5]) is “approximately 50%”. In addition, the “ammonia nitrogen (NH4—N) share of the total nitrogen (T-N)” value in data set [3] (setting [5]) is “approximately 50%”. Also, the “Nitrogen Concentration NH4—N” value is recorded as 0 mg/L in data set [3] (electrolyzing time 0 hours); 4.18 mg/L in data set [3] (electrolyzing time 1 hour); 9.06 mg/L in data set [3] (electrolyzing time 2 hours); 10.93 mg/L in data set [3] (electrolyzing time 3 hours); 13.43 mg/L in data set [3] (electrolyzing time 4 hours); 16 mg/L in data set [3] (electrolyzing time 5 hours). Also, the “Nitrogen Concentration NH4—N” value in data set [3] (electrolyzing time 6 hours) is recorded as 17.84 mg/L. The “Nitrogen Concentration NO2—N” value in data set [3] (electrolyzing time 0 hours), in data set [3] (electrolyzing time 1 hour), in data set [3] (electrolyzing time 2 hours), in data set [3] (electrolyzing time 3 hours), in data set [3] (electrolyzing time 4 hours) and in data set [3] (electrolyzing time 5 hours) was 0 mg/L each time. Also, the “Nitrogen Concentration NO2—N” value in data set [3] (electrolyzing time 6 hours) is 0 mg/L. The “Nitrogen Concentration NO3—N” value in data set [3] (electrolyzing time 0 hours) is recorded as 0.22 mg/L; in data set [3] (electrolyzing time 1 hour), 1 mg/L; in data set [3] (electrolyzing time 2 hours), 2.39 mg/L; in data set [3] (electrolyzing time 3 hours), 4.21 mg/L; in data set [3] (electrolyzing time 4 hours), 8.6 mg/L; in data set [3] (electrolyzing time 5 hours), 11.82 mg/L. Also, the “Nitrogen Concentration NO3—N” value in data set [3] (electrolyzing time 6 hours) worked out at 16.94 mg/L. Further, the “Nitrogen Concentration T-N” value turned out to be 80.1 mg/L in data set [3] (electrolyzing time 0 hours); 29.65 mg/L in data set [3] (electrolyzing time 2 hours); 32.17 mg/L in data set [3] (electrolyzing time 3 hours); 32.75 mg/L in data set [3] (electrolyzing time 4 hours); 33.04 mg/L in data set [3] (electrolyzing time 5 hours); 32.27 mg/L in data set [3] (electrolyzing time 6 hours). In addition, the “Nitrogen Concentration Org-N” value in data set [3] (electrolyzing time 0 hours) was 79.88 mg/L; in data set [3] (electrolyzing time 1 hour), 25.52 mg/L; in data set [3] (electrolyzing time 2 hours) it was 18.20 mg/L; in data set [3] (electrolyzing time 3 hours), 17.03 mg/L; in data set [3] (electrolyzing time 4 hours), 10.72 mg/L; in data set [3] (electrolyzing time 5 hours), 5.22 mg/L. Also, the “Nitrogen Concentration Org-N” value in data set [3] (electrolyzing time 6 hours) was -2.51 mg/L. The amikacin sulfate decomposed entry in data set [4] (2 hours from initiation of electrolysis) is listed as “approximately 90%”; in data set [4] (4 hours and thereafter from initiation of electrolysis), “approximately 99%”. The “Concentration of amikacin sulfate” value came out at 1000 µg/mL in data set [4] (electrolyzing time 0 hours (taken as 1,000 mg/L)); 98.579 µg/mL in data set [4] (electrolyzing time 2 hours, from peak area at retention time 4.2 minutes); 15.914 µg/mL in data set [4] (electrolyzing time 4 hours, from peak area at retention time 4.2 minutes); 10.911 µg/mL in data set [4] (electrolyzing time 6 hours, from peak area at retention time 4.2 minutes).
`OCl` [hypochlorous acid]: the contribution to cytotoxicity result with MOLT-4 cell is on record as “almost no contribution to cytotoxicity”.
In the case of `O=S([O-])([O-])=S.[Na+].[Na+]` [sodium thiosulfate], the contribution to cytotoxicity entry in the data set with MOLT-4 cell (in the electrolyzed samples, Molt-4 cells) is listed as “almost no contribution to cytotoxicity”.
